These results are taken from ChEMBL document CHEMBL3045263, “Novel 2-thiopyrimidine derivatives as CDK2 inhibitors: molecular modeling, synthesis, and anti-tumor activity evaluation” (Med Chem Res, 2013).

The test concerns HeLa. Briefly: Antitumor activity against Homo sapiens (human) HeLa cells assessed as inhibition of cell proliferation after 48 hr by SRB assay. The test is classed as functional, cell-based.

Consider `COc1ccc(-c2nc(Nc3ccc(S(N)(=O)=O)cc3)n3c(=O)[nH]nc3c2C#N)cc1OC`, for which the IC50 was 47 nM.

Regarding `COc1ccc(-c2nc(Nc3ccc(S(N)(=O)=O)cc3)nc(N3N=C(C)CC3=O)c2C#N)cc1OC`, the half-inhibitory concentration (IC50) amounted to 46 nM.

As to `CCOC1=NN(c2nc(Nc3ccc(S(N)(=O)=O)cc3)nc(-c3ccc(OC)c(OC)c3)c2C#N)C(=O)C1`, the half-inhibitory concentration (IC50) worked out at 42 nM.

For `COc1ccc(-c2nc(Nc3ccc(S(N)(=O)=O)cc3)nc(-n3nc(C)cc3C)c2C#N)cc1OC`, the IC50 is 41 nM.

Turning to `COc1ccc(-c2nc(Nc3ccc(S(N)(=O)=O)cc3)n3c(C)nnc3c2C#N)cc1OC`, the half-maximal inhibitory concentration (IC50) amounted to 48 nM.

Consider `COc1ccc(C2=C(C#N)C3=NCC(=O)N3C(Nc3ccc(S(N)(=O)=O)cc3)=N2)cc1OC`, for which the concentration for half-maximal inhibition (IC50) was 42 nM.

Consider `COc1ccc(-c2nc(Nc3ccc(S(N)(=O)=O)cc3)n3nnnc3c2C#N)cc1OC`, for which the IC50 was determined as 39 nM.

With `COc1cccc2c1C(=O)c1c(O)c3c(c(O)c1C2=O)C[C@@](O)(C(=O)CO)C[C@@H]3O[C@H]1C[C@H](N)[C@H](O)[C@H](C)O1` [DOXORUBICIN], the IC50 turned out to be 16 nM.
